Data: ChEMBL document CHEMBL1201862, “PubChem BioAssay data set” (2004)
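In this assay, cells in 96-well plates receive the compound at five concentrations for 48 hours. Endpoints are linearly interpolated between the surrounding concentrations. GI50 marks 50% less growth.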 Calls of active or inactive are those of the source. Cut-off read from the data, not from the text of the source: active = GI50 up to about 1.1 µM and inactive = higher.

Experiments:
Test in all cases: growth of human tumour cells (NCI), 48 h
[1] = tested on: UACC-62
[2] = tested on: MDA-N
[3] = tested on: OVCAR-3
[4] = tested on: SK-MEL-28
[5] = tested on: PC-3
[6] = tested on: 786-0
[7] = tested on: TK-10
[8] = tested on: HL-60
[9] = tested on: DU-145
[10] = tested on: SNB-75
[11] = tested on: HCT-15
[12] = tested on: BT-549
[13] = tested on: SF-268
[14] = tested on: SW-620
[15] = tested on: NCI-H226
[16] = tested on: HT-29
[17] = tested on: SK-MEL-2
[18] = tested on: NCI-H522
[19] = tested on: OVCAR-8
[20] = tested on: A498
[21] = tested on: SR
[22] = tested on: MDA-MB-231
[23] = tested on: LOX IMVI
[24] = tested on: HCC 2998
[25] = tested on: OVCAR-5
[26] = tested on: SK-MEL-5
[27] = tested on: CAKI-1
[28] = tested on: HCT-116
[29] = tested on: T47D
[30] = tested on: COLO 205
[31] = tested on: MOLT-4
[32] = tested on: SNB-19
[33] = tested on: MDA-MB-435
[34] = tested on: UACC-257
[35] = tested on: SF-539
[36] = tested on: RXF 393
[37] = tested on: MCF7
[38] = tested on: U-251
[39] = tested on: RPMI-8226
[40] = tested on: CCRF-CEM
[41] = tested on: NCI/ADR-RES
[42] = tested on: OVCAR-4
[43] = tested on: K562
[44] = tested on: Hs-578T
[45] = tested on: NCI-H460
[46] = tested on: A549
[47] = tested on: IGROV-1
[48] = tested on: EKVX
[49] = tested on: KM12
[50] = tested on: Malme-3M
[51] = tested on: SN12C
[52] = tested on: SK-OV-3
[53] = tested on: M14
[54] = tested on: UO-31
[55] = tested on: NCI-H23
[56] = tested on: ACHN
[57] = tested on: HOP-62
[58] = tested on: SF-295
[59] = tested on: HOP-92

`Nc1n[nH]c2c(C(=O)Nc3ccc(Cl)cc3)c(N)n(N)c(=O)c12` was tested, and the GI50 [1] was > 100 µM (inactive), the GI50 [2] was > 100 µM (inactive) and the GI50 [3] was > 100 µM (inactive). For the same molecule, the GI50 [4] was > 100 µM (inactive), the GI50 [5] was > 100 µM (inactive) and the GI50 [6] was > 100 µM (inactive). The GI50 [7] was > 100 µM (inactive), the GI50 [8] was > 100 µM (inactive) and the GI50 [9] was > 100 µM (inactive). The GI50 [10] was > 100 µM (inactive), the GI50 [11] was over 100 µM and the GI50 [12] was > 100 µM (inactive). The GI50 [13] was > 100 µM (inactive), the GI50 [14] was > 100 µM (inactive) and the GI50 [15] was > 100 µM (inactive). The GI50 [16] was > 100 µM (inactive), the GI50 [17] was > 100 µM (inactive) and the GI50 [18] was > 100 µM (inactive). For the same molecule, the GI50 [19] was > 100 µM (inactive), the GI50 [20] was > 100 µM (inactive) and the GI50 [21] was > 100 µM (inactive). The GI50 [22] was > 100 µM (inactive), the GI50 [23] was > 100 µM (inactive) and the GI50 [24] was > 100 µM (inactive). The GI50 [25] was > 100 µM (inactive), the GI50 [26] was > 100 µM (inactive) and the GI50 [27] was > 100 µM (inactive). For the same molecule, the GI50 [28] was > 100 µM (inactive), the GI50 [29] was > 100 µM (inactive) and the GI50 [30] was > 100 µM (inactive). For the same molecule, the GI50 [31] was > 100 µM (inactive), the GI50 [32] was > 100 µM (inactive) and the GI50 [33] was > 100 µM (inactive). The GI50 [34] was > 100 µM (inactive), the GI50 [35] was > 100 µM (inactive) and the GI50 [36] was > 100 µM (inactive). For the same molecule, the GI50 [37] was > 100 µM (inactive), the GI50 [38] was > 100 µM (inactive) and the GI50 [39] was > 100 µM (inactive). For the same molecule, the GI50 [40] was > 100 µM (inactive), the GI50 [41] was > 100 µM (inactive) and the GI50 [42] was > 100 µM (inactive). For the same molecule, the GI50 [43] was > 100 µM (inactive), the GI50 [44] was > 100 µM (inactive) and the GI50 [45] was > 100 µM (inactive). The GI50 [46] was > 100 µM (inactive), the GI50 [47] was > 100 µM (inactive) and the GI50 [48] was > 100 µM (inactive). The GI50 [49] was > 100 µM (inactive), the GI50 [50] was > 100 µM (inactive) and the GI50 [51] was > 100 µM (inactive). For the same molecule, the GI50 [52] was > 100 µM (inactive), the GI50 [53] was > 100 µM (inactive) and the GI50 [54] was > 100 µM (inactive). The GI50 [55] was > 100 µM (inactive).

In the case of `CCOC(=O)C(Cl)(NC(=O)c1c(F)c(F)c(F)c(F)c1F)C(F)(F)F` (configuration not stated), the GI50 [1] is reported as > 100 µM (inactive), the GI50 [2] is reported as > 100 µM (inactive) and the GI50 [3] is reported as > 100 µM (inactive). For the same molecule, the GI50 [4] was > 100 µM (inactive), the GI50 [5] was > 100 µM (inactive) and the GI50 [6] was > 100 µM (inactive). The GI50 [7] was > 100 µM (inactive), the GI50 [8] was 22.1 µM (inactive) and the GI50 [9] was > 100 µM (inactive). The GI50 [10] was > 100 µM (inactive), the GI50 [11] was over 100 µM and the GI50 [12] was > 100 µM (inactive). For the same molecule, the GI50 [13] was > 100 µM (inactive), the GI50 [14] was > 100 µM (inactive) and the GI50 [15] was > 100 µM (inactive). The GI50 [16] was > 100 µM (inactive), the GI50 [17] was > 100 µM (inactive) and the GI50 [18] was 19.5 µM (inactive). The GI50 [19] was > 100 µM (inactive), the GI50 [21] was 9.4 µM (inactive) and the GI50 [22] was > 100 µM (inactive). For the same molecule, the GI50 [23] was > 100 µM (inactive), the GI50 [24] was > 100 µM (inactive) and the GI50 [25] was > 100 µM (inactive). For the same molecule, the GI50 [26] was > 100 µM (inactive), the GI50 [27] was 20 µM (inactive) and the GI50 [28] was > 100 µM (inactive). For the same molecule, the GI50 [56] was > 100 µM (inactive), the GI50 [29] was > 100 µM (inactive) and the GI50 [30] was > 100 µM (inactive). The GI50 [31] was > 100 µM (inactive), the GI50 [32] was > 100 µM (inactive) and the GI50 [33] was > 100 µM (inactive). The GI50 [34] was > 100 µM (inactive), the GI50 [35] was > 100 µM (inactive) and the GI50 [36] was > 100 µM (inactive). For the same molecule, the GI50 [57] was > 100 µM (inactive), the GI50 [58] was > 100 µM (inactive) and the GI50 [37] was > 100 µM (inactive). For the same molecule, the GI50 [38] was > 100 µM (inactive), the GI50 [59] was 28.3 µM (inactive) and the GI50 [39] was > 100 µM (inactive). For the same molecule, the GI50 [40] was > 100 µM (inactive), the GI50 [41] was > 100 µM (inactive) and the GI50 [42] was > 100 µM (inactive). For the same molecule, the GI50 [43] was > 100 µM (inactive), the GI50 [44] was > 100 µM (inactive) and the GI50 [46] was > 100 µM (inactive). The GI50 [47] was > 100 µM (inactive), the GI50 [48] was 75.9 µM (inactive) and the GI50 [49] was > 100 µM (inactive). For the same molecule, the GI50 [50] was > 100 µM (inactive), the GI50 [51] was > 100 µM (inactive) and the GI50 [52] was > 100 µM (inactive). For the same molecule, the GI50 [53] was > 100 µM (inactive), the GI50 [54] was > 100 µM (inactive) and the GI50 [55] was > 100 µM (inactive).
